Results: patent US11597909B2, “Method for the formation of renal tubules” (LEIBNIZ-INSTITUT FÜR POLYMER-FORSCHUNG DRESDEN E.V., priority 2016, dated 2023)

Tests used:
[1] = system: tubule organoids from HK-2 cells; assay: Expression of kidney injury biomarker KIM-1 in tubule structures; assay type: cell-based, human; conditions: incubation with cisplatin, HK-2 tubule structures
Excerpt: (§1) The present invention can be used as an assay for nephrotoxicity.

[2] = system: tubule organoids from HK-2 cells; assay: Apoptosis by caspase-3 immunocytochemistry in tubule organoids; assay type: cell-based, human; conditions: incubation with cisplatin, HK-2 tubule organoids
Excerpt: as §1

For `N.N.[Cl][Pt][Cl]` [cisplatin], the “expression of kidney injury biomarker KIM 1” value [1] was “expressed the injury-indicating kidney biomarker KIM 1” and the “apoptosis (cell death), caspase-3 immunocytochemistry” value [2] was “increase in apoptosis”.
